Results on 79 compounds are retold here after the METLIN SMRT retention time set (Domingo-Almenara et al. 2019).

A short description of the series: gradient 5% acetonitrile 3 min, to 50% in 2 min, to 85% in 15 min, held 3 min, 100 µL/min. Conditions: column: Zorbax Extend-C18 2.1 x 50 mm; eluents: water / acetonitrile, 0.1% formic acid. The method, boiled down:
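A Zorbax Extend-C18 column (2.1 × 50 mm, 1.8 μm) run at 100 μL/min with water and acetonitrile, both containing 0.1% formic acid, separated mixtures of ~100 pure standards. The HPLC was coupled to a quadrupole time-of-flight mass spectrometer operated in positive and negative ionization mode, with dead and dwell volumes of 40 μL and 900 μL. Each retention time was taken from a computationally picked adduct peak that was then manually inspected.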
Consider `Cn1c(=O)c(N2CCCC(C(=O)NCCCN3CCCCCC3)C2)nc2cccnc21` (centres undefined), for which the RP-LC retention time is 581 s.

`CC(C)Cc1csc(-c2csc(S(=O)(=O)Nc3cccc(Cl)c3)c2)n1` yielded an RP-LC retention time of 1230 s.

`Cn1ncc(NC(=O)c2ccc(Cl)cc2)c(N2CCOCC2)c1=O` returned an RP-LC retention time of 771 s.

`CCOC(=O)c1cnc2nc(C)ccc2c1Nc1ccc(OC)cc1OC` yielded an RP-LC retention time of 702 s.

In turn, `Cc1nc(-c2cccc(NC(=O)c3cncc(Br)c3)c2)no1` displayed an RP-LC retention time of 834 s.

The compound `Cc1cccc(-c2nnc(-c3cc(S(=O)(=O)N(C)C)ccc3F)o2)c1` displayed an RP-LC retention time of 994 s.

In the case of `CN(C)c1nc(C(=O)N2CCN(c3ccc(F)cc3)CC2)nc2c1cnn2C`, the RP-LC retention time came to 739 s.

On to `Cc1cccc(CNC(=O)C2(C)Cn3cnc(C(=O)NC4CCCC4)c3C(=O)N2C2CC2)c1` (centres undefined), for which the RP-LC retention time was determined as 767 s.

Take `CCCc1ccc(C(=O)CC2(O)C(=O)Nc3ccccc32)cc1` (centres undefined): the RP-LC retention time stood at 831 s.

For the compound `Cc1cc(C(=O)Nc2ccc3nc(N4CCN(C)CC4)sc3c2)on1`, the RP-LC retention time was found to be 544 s.

The compound `CCCN1CCN(C(=O)C2CCCN(S(=O)(=O)c3cc(-c4noc(C)n4)cs3)C2)CC1` (centres undefined) yielded an RP-LC retention time of 638 s.

For the compound `O=C1NCCc2c(OCC(=O)N3N=C(c4cccs4)CC3c3ccc(F)cc3)cccc21` (centres undefined), the RP-LC retention time amounted to 787 s.

In the case of `O=C(Cn1cnc2nc(N3CCCC(C(=O)NC4CC4)C3)sc2c1=O)NCCC1=CCCCC1` (centres undefined), the RP-LC retention time stood at 722 s.

For the compound `CCN1C(=O)c2cccnc2Sc2cc(NC(=O)C3(c4ccccc4)CC3)ccc21`, the RP-LC retention time was 937 s.

`Cc1[nH]c2ccccc2c1C(=O)C(=O)Nc1ccc2c(c1)OCO2` had an RP-LC retention time of 782 s.

Regarding `Cc1noc2ncnc(N3CCCC(C(=O)N4CCN(C5CCCCC5)CC4)C3)c12` (centres undefined), the RP-LC retention time was 594 s.

As for `O=C(c1ccc(Br)cc1)N1CCN(c2cc(-c3ccc(Cl)cc3)[nH]n2)CC1`, the RP-LC retention time is 945 s.

Compound `COC(=O)c1ccc(NC(=O)Cn2c(-c3cccnc3)nc3ccccc32)cc1` showed an RP-LC retention time of 708 s.

The compound `COc1ccc(-c2ncc3c(n2)CCN(C(=O)Nc2cc(C)ccc2C)C3)cc1` had an RP-LC retention time of 660 s.

`Cc1ccc(F)c(NC(=O)c2cc(C(C)C)n3nccc3n2)c1` came in with an RP-LC retention time of 1250 s.

As for `Cc1ccc(Cl)cc1NC(=O)C1CCN(S(=O)(=O)c2cc(C(=O)N(C)C)cs2)CC1`, the RP-LC retention time was 846 s.

In turn, `CN(CC(=O)N1CCN(c2ccccc2)CC1)S(=O)(=O)c1c[nH]c(C(=O)N2CCCC2)c1` had an RP-LC retention time of 744 s.

As for `COC(=O)c1cc(OCC(=O)NC2CCCC2)c2cc(OC)ccc2n1`, the RP-LC retention time amounted to 739 s.

Take `Cc1ccc(-c2csc(-c3cccn3CC(=O)NCC3CCCO3)n2)cc1` (centres undefined): the RP-LC retention time was found to be 1020 s.

`CCc1ccc(OCCS(=O)(=O)Nc2cc(NC(C)=O)ccc2OC)cc1` showed an RP-LC retention time of 808 s.

`Cc1nn(-c2ccc(Cl)cc2)c(C)c1S(=O)(=O)N1CCC(C(=O)NC2CC2)CC1` had an RP-LC retention time of 835 s.

Take `Cc1ccc(CN2C(=O)COc3ccc(C(=O)NC(C)(C)C)cc32)cc1`: the RP-LC retention time amounted to 910 s.

`CCOC(=O)c1nc(NCc2ccc(C)cc2)c2ccccc2n1` registered an RP-LC retention time of 823 s.

With `O=C([C@@H]1C[C@H](F)CN1C(=O)Cc1ccccc1F)N1CCCCC1`, the RP-LC retention time is 684 s.

Turning to `CCOC(=O)N1CCN(Cc2nc(-c3ccc(N4CCCC(C)C4)nc3)no2)CC1` (centres undefined), the RP-LC retention time stood at 855 s.

In turn, `Cc1ccc2c(c1)N(CCC(C)C)N=C(C(=O)N1CCCC1)S2(=O)=O` yielded an RP-LC retention time of 939 s.

The compound `CN(CCNC(=O)c1cc(S(=O)(=O)N2CCCCC2)ccc1Cl)Cc1ccccc1` had an RP-LC retention time of 711 s.

On to `CC(C)c1noc(-c2ccc(-n3cnc(C(=O)Nc4ccc(F)cc4)c3)nc2)n1`, for which the RP-LC retention time is 1020 s.

In turn, `Cc1cccc(NC(=O)Nc2nccn(-c3ccc4c(c3)CCC4)c2=O)c1` displayed an RP-LC retention time of 1140 s.

On to `COc1cc(OC)c(NC(=O)C2CCN(C(=O)C3Sc4ccccc4NC3=O)CC2)cc1Cl` (centres undefined), for which the RP-LC retention time turned out to be 810 s.

Turning to `CCOC(=O)N1CCN(C(=O)CN2C(=O)c3ccccc3S2(=O)=O)CC1`, the RP-LC retention time turned out to be 643 s.

Take `COc1c(C(=O)N2CCN(c3ccccc3)CC2)sc2cccc(F)c12`: the RP-LC retention time was 1090 s.

In turn, `CC1=NS(=O)(=O)N(Cc2ccccc2)C=C1C(=O)OCc1nc(-c2ccccc2Cl)no1` displayed an RP-LC retention time of 1130 s.

`O=c1c2scc(-c3cccc(F)c3)c2ncn1Cc1cccnc1` gave an RP-LC retention time of 699 s.

Take `c1ccc(-c2nc(-c3ccncc3)no2)c(OC2CCN(CC3CC3)C2)c1` (centres undefined): the RP-LC retention time worked out at 642 s.

`CC(C)c1noc(-c2cccnc2N2CCCN(Cc3cccc(F)c3)CC2)n1`: the RP-LC retention time was 708 s.

For the compound `O=C(C1=CN(c2cc(F)cc(F)c2)c2ccccc2S1(=O)=O)N1CCCC1`, the RP-LC retention time was found to be 786 s.

For `O=C(NCCc1ccccc1)C1=Cc2ccccc2OC=C1`, the RP-LC retention time is 1010 s.

The compound `Cc1nnc2c(=O)n(CC(=O)NCc3ccccc3Cl)c3cccnc3n12` gave an RP-LC retention time of 693 s.

Compound `O=C(NC(c1ccccc1)c1nnc(N2CCCC2)o1)c1cccc(Cl)c1` (centres undefined) returned an RP-LC retention time of 867 s.

Take `CNC(=O)C1CCN(c2nc3ccc(-c4ccc(F)cc4)nc3s2)CC1`: the RP-LC retention time was 824 s.

Regarding `CCn1c(=O)c2ccccc2n(Cc2nc(-c3ccc(C)cc3)no2)c1=O`, the RP-LC retention time is 1070 s.

The compound `COc1ccccc1Nc1c(-c2ccc(C(=O)O)cc2)nc2cnccn12` displayed an RP-LC retention time of 730 s.

As to `CN1CC2(CCCC2)N(C(=O)COc2ccc(F)cc2)CC1=O`, the RP-LC retention time turned out to be 740 s.

`CCNC(=O)C1CCN(S(=O)(=O)c2cc(Cl)ccc2OC)CC1`: the RP-LC retention time was 726 s.

On to `CN1C(=O)c2ccccc2Oc2ccc(C(=O)N3CCCCCC3)cc21`, for which the RP-LC retention time was found to be 846 s.

Regarding `CCC1Oc2ccc(S(=O)(=O)N3CCC(C(=O)Nc4ccc(C)c(Cl)c4)CC3)cc2NC1=O` (centres undefined), the RP-LC retention time came to 1020 s.

Compound `O=C(NCC1(N2CCOCC2)CCOC1)Nc1ccc2c(c1)OCCO2` (centres undefined) gave an RP-LC retention time of 589 s.

`Cc1ccc2[nH]c(=O)c(CCC(=O)NCc3ccncc3)cc2c1` displayed an RP-LC retention time of 586 s.

As to `CCN(CC)CCCC(C)Nc1nc(C)nc2cc(Cl)ccc12` (centres undefined), the RP-LC retention time is 769 s.

In turn, `COc1ccc(OC)c(S(=O)(=O)N2CCc3nc[nH]c3C2)c1` gave an RP-LC retention time of 554 s.

`Cc1ccc(-c2nc3cccc(C)n3c2Nc2ccc3c(c2)OCCO3)cc1` registered an RP-LC retention time of 710 s.

In turn, `Cc1ccc(Nc2c(-c3ccc(O)cc3)nc3ncccn23)c(C)c1` gave an RP-LC retention time of 719 s.

For `Oc1cc2c(c(Cl)c1O)CCNC[C@@H]2c1ccccc1`, the RP-LC retention time was 648 s.

`COc1ccc(NS(=O)(=O)c2cc3c(s2)CCN(C(=O)C2CC2)C3)cc1`: the RP-LC retention time was 774 s.

`O=C(C1=CN(c2ccc(F)cc2)c2cc(F)ccc2S1(=O)=O)N1CCCC1` returned an RP-LC retention time of 748 s.

`CCN1C(=O)CCc2cc(NS(=O)(=O)c3cccc(C)c3)ccc21`: the RP-LC retention time is 788 s.

In turn, `COc1ccc(C(=O)Nc2c(-c3ccccc3)nc3cc(C)ccn23)c(OC)c1` registered an RP-LC retention time of 680 s.

In the case of `CC1CN(Cc2nc3c(c(=O)n(C)c(=O)n3C)n2CC(=O)c2ccccc2)CC(C)O1` (centres undefined), the RP-LC retention time is 624 s.

Turning to `CCOCCCNC(=O)c1ccc2nc(CCc3ccc(NC(C)=O)cc3)[nH]c2c1`, the RP-LC retention time worked out at 589 s.

In turn, `COc1ccc(CCS(=O)(=O)NCC2CCN(C(=O)c3cccn(C)c3=O)CC2)cc1` returned an RP-LC retention time of 638 s.

In turn, `O=C([C@@H]1C[C@H](F)CN1S(=O)(=O)c1cccc(F)c1)N1CCc2ccccc2C1` registered an RP-LC retention time of 920 s.

The compound `CNC(=O)c1ccsc1NC(=O)c1cccc(C(F)(F)F)c1` came in with an RP-LC retention time of 1160 s.

On to `COc1ccc(C(=O)CSc2nc(-c3ccc(OC)cc3)ns2)cc1`, for which the RP-LC retention time was 1090 s.

The compound `O=C(NCc1ccc2c(c1)OCO2)c1ccc2c(cnn2CC(=O)N2CCCCCC2)c1` registered an RP-LC retention time of 766 s.

Consider `Cc1ccccc1NC(=O)N1CCCN(c2ccc(=O)n(-c3ccccc3)n2)CC1`, for which the RP-LC retention time worked out at 720 s.

Consider `Cc1ccccc1NC(=O)C1CCCN1S(=O)(=O)c1cc2c(cc1C)NC(=O)CO2` (centres undefined), for which the RP-LC retention time stood at 763 s.

Compound `COc1ccccc1-c1noc(C2CCCN2C(=O)c2cccc(F)c2)n1` (centres undefined) had an RP-LC retention time of 856 s.

`CCOCCCNC(=O)CCc1cc2cc(OC)ccc2[nH]c1=O` displayed an RP-LC retention time of 615 s.

`Cc1ccc2c(Nc3ccc(CC(=O)O)cc3)c(C(=O)N3CCCCC3C)cnc2n1` (centres undefined) displayed an RP-LC retention time of 580 s.

As to `COc1ccc(CNS(=O)(=O)c2ccc(-c3nnc(C4CCC4)o3)o2)cc1`, the RP-LC retention time turned out to be 873 s.

`O=C(NCc1cccs1)C1CCN(c2nnc3ccccn23)CC1` registered an RP-LC retention time of 528 s.

In the case of `CC(=O)N1CCC(N2C(=O)C3(CCCC3)C2c2scnc2C)CC1` (centres undefined), the RP-LC retention time amounted to 664 s.

`O=C(NCc1cccc(C(F)(F)F)c1)C1CCN(c2cc(N3CCOCC3)ncn2)CC1` displayed an RP-LC retention time of 672 s.
